Test results from article PMC11189555, “Aryl amino acetamides prevent Plasmodium falciparum ring development via targeting the lipid-transfer protein PfSTART1” (Nature Communications, 2024).
Values joined by “and” are separate entries in the source; they are usually repeats but may differ in a detail not shown here. Identical values can stand only once. Like-named read-outs stand apart in the source and are kept apart here.

Legend:
CR-N309K parasites = experiment: Growth inhibition assay (72 h, LDH activity); format: cell-based, Plasmodium falciparum; conditions: for inhibition at 5 µM: read-out: NORMALISED (growth inhibition, LDH absorbance)
Method: (§1) Parasite growth assays with inhibitory compounds were performed as per[11] and are fully described in the Supplementary Information.
(§2) Molecular biology and transfection of P. falciparum: CRISPR method.
(§3) The full 5’ homology region of pfstart1 (either WT, N309K or N330K) was amplified from pPfSTART1-HA-2A-Neo-glmS with the same 5’ BglII primer and a new 3’ primer that replaced with PstI with SpeI and introduced a stop codon. The PCR product was then digested with BglII and SpeI and inserted into similarly digested p1.2 parasite vector2. The p1.2 vector had previously been inserted with a homology region amplified from the 3’ end of the pfstart1 gene (3’HB) to form a second homology block for double recombination. The primers used to amplify 3’HB are listed primers listed in […]
(§4) 60 μg of p1.2-PfSTART1(WT/N309K/N330K) plasmid was linearised with KasI, precipitated in 3 M sodium acetate and ethanol (70% final concentration) overnight at -20°C. The DNA pellet was washed in cold 70% ethanol and resuspended in cytomix 3.
(§5) 50 μ M of crRNA ( Table S 2) and 50 μM of tracRNA (Integrated DNA Technologies) were allowed to form a duplex (5 min at 95°C), and Cas9 enzyme (Integrated DNA Technologies) was added, and incubated for 20 min at room temperature 4. This crRNA -tracRNA -Cas9 mix was added to each DNA preparation and transfected to 3D7 ring parasites using the Bio -Rad Gene Pulser at 310 V and 950 μF.
(§6) Parasites containing the transfected DNA were selected using 2.5 nM WR99210 (Jacobus). Parasites lines were cloned using limiting dilution. Correct integration was tested by PCR (using primer START_5’UTR.F and START_Int.R1 , Table S 2), and sequencing was done using the primers START_3F and START_Int.R2 (Table S 2).
(§7) Growth inhibition assays. Synchronised ring-stage parasites (0.3-0.6% parasitemia, 2% haematocrit) were grown for 72 h in a serial-dilution of the compound under […]
(§8) and compound 4. Note that M-833 was first purchased from MolPort (MolPort -002-267-916) then made in-house at WEHI: the differences observed in EC50s across experiments are attributed to the different batches of M -833. For some experiments, 0, 0.25 or 2.5 mM of glucosamine (GlcN) was also added. Experiments were set up in technical duplicates or triplicates. Following a freeze -thaw cycle, lactate dehydrogenase (LDH) activity was assessed as an indicator of parasite growt h 5. 30 μL of parasite culture was incubated for 30 min in the dark with 75 μL Malstat mixture (0.1 M Tris pH 9.0, 20 g/L lactic acid, pH 7.5, 0.2% Triton-X100, 0.5 g/L acetylpyridine adenine dinucleotide (APAD, Sigma), 200 μg/mL nitroblue tetrazolium (NBT; Sigma), 1 μg/mL phenozine ethosulfate (PES; Sigma)). Absorbance was then measured at 650 nm, transformed using the formula below, plotted against the logarithm of the concentrations, and a non-linear regression (log(inhibitor) vs. response, variable slope) was calculated using GraphPad Prism to assess the half-inhibitory […]
(§9) Growth inhibition % = (1 − average(sample)− average(uRBC)) ∗ 100 […]
(§10) The DMSO samples were also used to assess growth of parasite in the presence of 0.25 and 2.5 mM GlcN (normalised by DMSO in 0 mM GlcN).
(§11) Egress, invasion & recovery assay. To measure egress, invasion and follow up recovery in the presence of different compounds, we adapted the method developed in6, using Hyp1-Nluc parasites7. These parasites episomally express the exported PEXEL protein Hyp1 (PF3D7_0113300) tagged with a NanoLuc luciferase (NLuc) and were selected with 2.5 nM WR99210 (Jacobus). Highly synchronised schizonts were obtained using ML10 (LifeArc) and sorbitol synchronisation, and Percoll-purified (the culture was gently layered over 67% Percoll (Cytiva) in RPMI, and centrifuged for 15 min at 1500 g and the schizont layer was collected and washed). In a 96-well plate, […]

CR-N330K parasites = experiment: Growth inhibition assay (72 h, LDH activity); format: cell-based, Plasmodium falciparum
Method: as §1, §2, §3, §4, §5, §6, §7, §8, §9, §10, §11

[1] = 0.25 mM GlcN, dilution point 1 of 10, starting concentration 5 uM
[2] = 0.25 mM GlcN, dilution point 2 of 10 from starting concentration 5 uM
[3] = 0.25 mM GlcN, dilution point 3 of 10 from starting concentration 5 uM
[4] = 0.25 mM GlcN, dilution point 6 of 10 from starting concentration 5 uM
[5] = 2.5 mM GlcN, dilution point 1 of 10, starting concentration 5 uM
[6] = 2.5 mM GlcN, dilution point 2 of 10 from starting concentration 5 uM
[7] = 2.5 mM GlcN, dilution point 3 of 10 from starting concentration 5 uM
[8] = 2.5 mM GlcN, dilution point 4 of 10 from starting concentration 5 uM
[9] = 2.5 mM GlcN, dilution point 5 of 10 from starting concentration 5 uM
[10] = 2.5 mM GlcN, dilution point 6 of 10 from starting concentration 5 uM

CC(C)(Nc1ccc(Cl)c(S(=O)(=O)N2CCOCC2)c1)C(=O)Nc1ccc(F)c(Cl)c1 [W-991]
NORMALISED (growth inhibition, LDH absorbance vs DMSO and uRBC) (CR-N309K parasites; 0 mM GlcN, W991 at 185.185 nM): 14.1711 and 15.2813
NORMALISED (growth inhibition, LDH absorbance vs DMSO and uRBC) (CR-N309K parasites; 0 mM GlcN, W991 at 555.556 nM): 55.508 and 36.7800
NORMALISED (growth inhibition, LDH absorbance vs DMSO and uRBC) (CR-N309K parasites; 0 mM GlcN, W991 at 1666.67 nM): 87.9679 and 76.9970
NORMALISED (growth inhibition, LDH absorbance vs DMSO and uRBC) (CR-N309K parasites; 0 mM GlcN, W991 at 5000 nM): 96.4706 and 92.1927
NORMALISED (growth inhibition, LDH absorbance) (CR-N309K parasites; [1]): 94.7776
NORMALISED (growth inhibition, LDH absorbance) (CR-N309K parasites; [2]): 100.739 and 90.0516
NORMALISED (growth inhibition, LDH absorbance) (CR-N309K parasites; [3]): 80.0443 and 56.9500
NORMALISED (growth inhibition, LDH absorbance) (CR-N309K parasites; 0.25 mM GlcN, dilution point 5 of 10 from starting concentration 5 uM): 17.9601 and 13.8403
NORMALISED (growth inhibition, LDH absorbance) (CR-N309K parasites; [4]): 8.426 and 8.7470
NORMALISED (growth inhibition, LDH absorbance) (CR-N309K parasites; [5]): 83.5476
NORMALISED (growth inhibition, LDH absorbance) (CR-N309K parasites; [6]): 82.9906
NORMALISED (growth inhibition, LDH absorbance) (CR-N309K parasites; [7]): 95.6522 and 78.1705
NORMALISED (growth inhibition, LDH absorbance) (CR-N309K parasites; [8]): 71.5415 and 48.7789
NORMALISED (growth inhibition, LDH absorbance) (CR-N309K parasites; [9]): 41.502 and 22.2365
NORMALISED (growth inhibition, LDH absorbance) (CR-N309K parasites; [10]): 17.3913 and 10.0471
NORMALISED (growth inhibition, LDH absorbance) (CR-N309K parasites; 2.5 mM GlcN, dilution point 8 of 10 from starting concentration 5 uM): 5.138 and 4.2631
NORMALISED (growth inhibition, LDH absorbance) (CR-N309K parasites; 2.5 mM GlcN, dilution point 9 of 10 from starting concentration 5 uM): 11.3967 and 7.51
fold less susceptible than the 3D7 and CR-WT controls (CR-N309K parasites; Fig 4C): around 600 fold
fold sensitised on PfSTART1 knock-down with GlcN (CR-N309K parasites; Fig 4C): 5 fold
EC50 (CR-N309K parasites; Fig 4C, 0 mM GlcN, n = 3, read-out: EC50 W-991 (95% confidence interval)): < 0.7 µM
inhibition at 5 µM (CR-N309K parasites; Plasmodium falciparum, 0.25 mM GlcN, dilution point 1 of 10, starting concentration 5 uM): 101%
inhibition at 5 µM (CR-N309K parasites; Plasmodium falciparum, 2.5 mM GlcN, dilution point 1 of 10, starting concentration 5 uM): 94.5%
EC50 (CR-N309K parasites; Plasmodium falciparum, read-out: EC50 W-991 (95% confidence interval), Fig 4C, 0 mM GlcN, n = 3): 0.687 µM
EC50 (CR-N309K parasites; Plasmodium falciparum, read-out: EC50 W-991 (95% confidence interval), Fig 4C, 0.25 mM GlcN, n = 3): 0.362 µM
EC50 (CR-N309K parasites; Plasmodium falciparum, read-out: EC50 W-991 (95% confidence interval), Fig 4C, 2.5 mM GlcN, n = 3): 0.137 µM
EC50 (CR-N309K parasites; read-out: EC50 W-991 (95% confidence interval), Fig 4C, 0 mM GlcN, n = 3): 0.687 µM
NORMALISED (growth inhibition, LDH absorbance) (CR-N330K parasites; 0 mM GlcN, dilution point 1 of 10, starting concentration 5 uM): 89.5809 and 91.9275
NORMALISED (growth inhibition, LDH absorbance) (CR-N330K parasites; 0 mM GlcN, dilution point 2 of 10 from starting concentration 5 uM): 82.5498 and 75.3344
NORMALISED (growth inhibition, LDH absorbance) (CR-N330K parasites; [1]): 90.7025
NORMALISED (growth inhibition, LDH absorbance) (CR-N330K parasites; [2]): 83.8227
NORMALISED (growth inhibition, LDH absorbance) (CR-N330K parasites; [3]): 67.3993 and 45.0538
NORMALISED (growth inhibition, LDH absorbance) (CR-N330K parasites; [4]): 5.889 and 5.4992
NORMALISED (growth inhibition, LDH absorbance) (CR-N330K parasites; [5]): 66.3651 and 90.1101
NORMALISED (growth inhibition, LDH absorbance) (CR-N330K parasites; [6]): 62.0066 and 84.8366
NORMALISED (growth inhibition, LDH absorbance) (CR-N330K parasites; [7]): 63.3224 and 83.4457
NORMALISED (growth inhibition, LDH absorbance) (CR-N330K parasites; [8]): 52.3849 and 74.2725
NORMALISED (growth inhibition, LDH absorbance) (CR-N330K parasites; [9]): 40.7072 and 51.6938
NORMALISED (growth inhibition, LDH absorbance) (CR-N330K parasites; [10]): 28.9474 and 29.6954
